Data taken from patent US20070087326A1, “Method of measuring the biological activity of an urotensin II receptor” (priority 2005, published 2007).
Bridge positions count the residues as written; N and C are the ends. Square brackets hold non-standard residues; d marks the D form. Peptide text beside a SMILES is read from it. Pen = CC(C)(S)[C@H](N)C(=O)O; Orn = NCCC[C@H](N)C(=O)O

Tests used:
[1] = molecular target: T1, endogeneous human U-II receptors (RMS13 cells) (Homo sapiens, UniProt Q9UKP6); assay: CDS (CellKey) electrical impedance assay in RMS13 cells; format: cell-based; conditions: FIG. 3A
T1 construct: Cells of RMS13 and 6D9 have endogeneous human U-II receptors; host or cells: RMS13 (human) and 6D9, a sub-clone of RMS13
T1 sequence (Q9UKP6 1-389): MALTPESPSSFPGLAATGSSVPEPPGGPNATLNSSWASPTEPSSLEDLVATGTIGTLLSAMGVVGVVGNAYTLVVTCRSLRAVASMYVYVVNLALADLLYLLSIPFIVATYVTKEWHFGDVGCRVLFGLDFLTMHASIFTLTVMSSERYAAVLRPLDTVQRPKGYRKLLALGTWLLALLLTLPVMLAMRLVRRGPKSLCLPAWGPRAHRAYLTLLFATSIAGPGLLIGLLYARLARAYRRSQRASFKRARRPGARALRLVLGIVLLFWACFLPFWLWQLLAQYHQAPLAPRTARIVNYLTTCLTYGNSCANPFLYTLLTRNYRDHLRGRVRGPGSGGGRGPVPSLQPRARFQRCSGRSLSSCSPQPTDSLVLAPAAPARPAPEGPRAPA
Method: (§1) RMS13 was obtained from ATCC (ATCC NO: CRL-2061™, Manassas, Va.). […] The parent of the CHOrUII cells, CHO-K1 was obtained from ATCC (CAT# CRL-9618_CHOK1). The rat UT receptor was recombinantly cloned into CHO-K1 following standard molecular biology cloning techniques. The CHOrUII cells were under G418 selection. […] Angiotensin was purchased from Sigma. Urantide (PUT-3639-P1) was purchased from Peptide International (Louisville, Ky.).
(§2) Cells of RMS13 and 6D9 were cultured in RPMI medium (ATCC 30-2001) containing 10% FBS (Cat. No. SH30070.03, Hyclone, Logan, Utah). CHOrUII cells were grown in DMEMF12 (Gibco #11330-032) medium containing G418 at 1 mg/ml concentration. Cells were plated at 60 or 70K/well in a medium indicated above overnight. The medium was removed and replaced with Hanks balanced salt solution (HBSS, Gibco) containing 20 mM Hepes and 0.1% BSA. Electrical impedance was measured 2-5 minutes prior to compound addition. Compounds were added and measurements continued. The electrical impedance of the cells was measured using CellKey™ (MDS Sciex, Concord, Ontario) according to the protocol of the manufacturer, see for example Ciambrone et al. (2004, J Biomol Screen. 9(6): 467-80). […]
(§3) Cell density-dependence responses to Urotensin II (500 nM) were analyzed to determine the optimum cell density for the CDS assay at 28° C.

[2] = molecular target: T2, endogeneous human U-II receptors (6D9 cells, sub-clone of RMS13) (Homo sapiens, UniProt Q9UKP6); assay: CDS (CellKey) electrical impedance assay in 6D9 cells; format: cell-based; conditions: FIG. 3B
T2 construct: Cells of RMS13 and 6D9 have endogeneous human U-II receptors; host or cells: RMS13 (human) and 6D9, a sub-clone of RMS13
T2 sequence (Q9UKP6 1-389): T1 sequence (Q9UKP6 1-389)
Method: as §1, §2, §3

[3] = molecular target: T3, recombinant rat U-II receptors (CHOrUII cells) (Rattus norvegicus, UniProt P49684); assay: CDS (CellKey) electrical impedance assay in CHOrUII cells; format: cell-based; conditions: FIG. 3C
T3 construct: expressed in transfected cells; host or cells: CHO-K1 (ATCC CRL-9618), G418 selection
T3 sequence (P49684 1-386): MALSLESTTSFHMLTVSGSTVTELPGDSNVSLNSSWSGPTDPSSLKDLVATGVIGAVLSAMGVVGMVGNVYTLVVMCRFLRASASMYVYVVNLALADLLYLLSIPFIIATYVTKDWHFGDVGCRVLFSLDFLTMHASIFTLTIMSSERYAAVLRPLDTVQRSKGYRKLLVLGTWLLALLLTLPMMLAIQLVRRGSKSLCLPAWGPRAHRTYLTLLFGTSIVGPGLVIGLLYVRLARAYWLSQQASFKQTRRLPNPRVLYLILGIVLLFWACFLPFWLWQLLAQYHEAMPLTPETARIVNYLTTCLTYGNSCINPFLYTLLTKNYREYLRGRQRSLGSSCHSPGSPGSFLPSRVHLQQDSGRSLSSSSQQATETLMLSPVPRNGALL
Method: The CHOrUII cells were under G418 selection. […] Urantide (PUT-3639-P1) was purchased from Peptide International (Louisville, Ky.). Cells of RMS13 and 6D9 were cultured in RPMI medium (ATCC 30-2001) containing 10% FBS (Cat. No. SH30070.03, Hyclone, Logan, Utah). CHOrUII cells were grown in DMEMF12 (Gibco #11330-032) medium containing G418 at 1 mg/ml concentration. Cells were plated at 60 or 70K/well in a medium indicated above overnight. The medium was removed and replaced with Hanks balanced salt solution (HBSS, Gibco) containing 20 mM Hepes and 0.1% BSA. Electrical impedance was measured 2-5 minutes prior to compound addition. Compounds were added and measurements continued. […] In particular, 100 mV voltage was applied to the cells with a sweeping frequency range of 1 kHz to […]. Cell density-dependence responses to Urotensin II (500 nM) were analyzed to determine the optimum cell density for the CDS assay at 28° C.

[4] = test system: panel of receptor/ion channels; assay: binding to a panel of receptor/ion channels; conditions: data not shown
UT receptor = molecular target: T4, UT receptor (Rattus norvegicus, UniProt P49684); conditions: competitive UT receptor antagonist, rat aorta (Patacchini, 2003); cited from earlier work
T4 construct: pure UT receptor antagonist in rat aorta vasoconstriction assays; host or cells: rat aorta tissue
T4 sequence (P49684 1-386): T3 sequence (P49684 1-386)

human UT receptor = molecular target: T5, human UT receptor (Homo sapiens, UniProt Q9UKP6); conditions: CHO cells over-expressing the human UT receptor (Camarda, 2004); cited from earlier work
T5 construct: host or cells: CHO cells over-expressing the human UT receptor
T5 sequence (Q9UKP6 1-389): T1 sequence (Q9UKP6 1-389)

[5] = molecular target: human U-II receptor (endogeneous, on RMS13 and 6D9 cells) (human) (UniProt Q9UKP6); assay: cell-based or functional assay

EC50 of the dose dependent increase in electrical impedance of 6D9 cells (CDS, CellKey) [5] [pM]	EC50 of the dose dependent increase in electrical impedance of RMS13 cells (CDS, CellKey) [5] [pM]	Compound	effect on U-II stimulated increase in electrical impedance [1]	effect on U-II stimulated increase in electrical impedance [2]	effect on U-II stimulated increase in electrical impedance [3]	binding activity to proteins within a panel of receptor/ion channels [4]	pA2 (UT receptor)	agonist activity (human UT receptor)
		CC(C)[C@H](NC(=O)[C@@H]1CSSC(C)(C)[C@H](NC(=O)[C@@H](N)CC(=O)O)C(=O)N[C@@H](Cc2ccccc2)C(=O)N[C@H](Cc2c[nH]c3ccccc23)C(=O)N[C@@H](CCCN)C(=O)N[C@@H](Cc2ccc(O)cc2)C(=O)N1)C(=O)O [Urantide] (H-D[Pen]F[dW][Orn]YCV-OH; disulfide 2-7)	blocked the U-II stimulated increase	blocked the U-II stimulated increase	blocked the U-II stimulated increase	minimal binding activity	8.3	potent U-II agonist
420	270	Urotensin-II (peptide)						
		angiotensin	did not	did not	did not			
